{"source": "patent US20050014268A1", "about": "“Genetic transformation using a PARP inhibitor” (Bayer BioScience NV, priority 1995, published 2005)", "key": {"[1]": {"tested_on": "wheat embryogenic callus (variety Pavon)", "assay": "Transformation of wheat calli with barnase/bar plasmids by particle bombardment, with niacinamide treatment of the calli", "format": "cell-based", "procedure": "The Wheat Spring variety Pavon is grown in a greenhouse or conditioned room at 23-24° C. during daytime and 18-20° C. at night, with a photoperiod of 16 hours light and 8 hours dark. Developing seeds (white-greenish with white semi-liquid endosperm) were harvested, sterilized by incubation for 1 minute in 70% ethanol followed by 15 minute incubation in 1.3% NaOCl+0.1% Tween 20, and washed with sterile water. The sterilized seeds were either used directly or were stored for one day at 4-7° C.\nImmature embryos of about 1 mm in size were isolated and were placed, with the scutellum upwards, on callus inducing medium W1 (MS medium supplemented with 3% sucrose, 40 mg/l adenine.SO4, 0.5 mg/l thiamine.HCl, 0.5 g/l 2-[N-Morpholino] ethane sulfonic acid (Mes) pH 5.8, 0.5% agarose, 0.5 to 2.5 mg/l CuSO4.5H2O, 25 mg/l acetylsalicylic acid and 2 mg/l 2,4-dichlorophenoxyacetic acid (2,4-D)) and were incubated for 3 weeks at 27° C. in the dark.\nEmbryogenic sections of the developing callus were isolated, placed on callus maintenance medium W2 (W1 medium but without acetylsalicylic acid and with only 0.5 mg/l CuSO4.5H2O and 1 mg 2,4-D), and incubated for 3 weeks at 24-25° C. in the light (approx. 20 mEinsteins/s/m^2 (with a photoperiod of 16 hours light and 8 hours dark).\nAbout 2 weeks prior to bombardment the calli were cleaned up by removal of non-morphogenic (i.e. the nonembryogenic and nonmeristematic) parts and were subcultured on W2 medium.\nFor bombardment the calli were divided into small pieces with an average maximum diameter of about 2-3 mm. These pieces were placed at the center of a 9 cm Petridish containing W2 medium in a circle with a diameter of approx. 0.5 cm. […]\nBombardment was carried out using the Biolistic PDS-1000/He apparatus (Bio-Rad). Preparation of the microcarriers ([…]) and the coating of the microcarriers with DNA was essentially carried out according to the manufacturer's instructions. The Petridishes containing the calli were placed at level 2 of the apparatus and the bombardment was done at 1550 psi.\nFor the transformation experiments the following plasmid DNA was used. • plasmid pVE136, the sequence of which is given in SEQ ID No 4. This plasmid contains the following chimeric genes: • P35S-bar-3′nos • PCA55-barnase-3′nos • in which P35S is the 35S promoter of the Cauliflower, Mosaic virus, bar is a DNA encoding phosphinothricin acetyltransferase (EP 242236), 3′nos is the 3′ untranslated end of the Agrobacterium T-DNA nopaline synthase gene, PCA55 is a stamen-specific promoter from corn gene CA55 (WO 9213957), and barnase is a DNA encoding barnase (Hartley, 1988, J.Mol.Biol.202:913-915) • plasmid pTS172 the sequence of which is given in SEQ ID No 2. This plasmid contains the following chimeric genes: • P35S-bar-3′g7 • PE1-barnase-3′nos • in which in which P35S is the 35S promoter of the Cauliflower Mosaic virus, bar is a DNA encoding phosphinothricin acetyltransferase (EP 242236), 3′g7 is the 3′ untranslated end of the Aqrobacterium T-DNA gene 7, PE1 is a stamen-specific promoter from rice gene E1 (WO 9213956), barnase is a DNA encoding barnase (Hartley, 1988, J.Mol.Biol.202:913-915), and 3′ nos is the 3′ untranslated end of the Agrobacterium T-DNA nopaline synthase gene, • plasmid pTS772 which is identical to pTS172 except that the region between nucleotides 2625-4313 of pTS172, containing PE1, is replaced by the sequence of SEQ ID No 3 containing the PT72 promoter. Thus, plasmid pTS772 contains the following chimeric genes: • P35S-bar-3′g7 • PT72-barnase-3′nos • in which PT72 is a stamen-specific promoter from rice gene T72 (WO 9213956)\nThe bombarded calli were transferred to selective medium W2 containing 2.5 mg/l phosphinothricin (PPT) and, if neccesary, 100 mg/l niacinamide. The calli that were placed on medium containing niacinamide were transferred after 4 days to niacinamide-free W2 medium containing 2.5 mg/l PPT. The cells were cultured at 24-25° C. […]"}, "[2]": {"tested_on": "Brassica napus hypocotyl explants", "assay": "Tissue culture of Brassica napus hypocotyl explants on A5 medium containing niacinamide", "format": "cell-based", "procedure": "Hypocotyl explants of Brassica napus were obtained, cultured and transformed essentially as described by De Block et al, 1989, Plant Physiol. 914:694-701 except for the following modifications: • hypocotyl explants were precultured for 3 days on A2 medium (MS, 0.5 g/l Mes (pH 5.7), 1.2% glucose, 0.5% agarose, 1 mg/l 2,4-D, 0.25 mg/l naphthalene acetic acid (NAA), 1 mg/l 6-benzylaminopurine (BAP)), […] MS, 0.5 g/l Mes (pH 5.7), 1.2% glucose, 0.1 mg/l NAA, 0.75 mg/l BAP, 0.01 mg/l giberellinic acid (GA3) • selection medium A5 was 0.5 g/l Mes (pH 5.7), 1.2% glucose, 40 mg/l adenine.SO4, 0.5 g/l polyvinyl-polypyrrolidone (PVP), 0.5% agarose, 0.1 mg/l NAA, 0.75 mg/l BAP, 0.01 mg/l GA3, 250 mg/l carbenicillin, 250 mg/l triacillin, 5 mg/l AgNO3. • regeneration medium A6 was MS, 0.5 g/l Mes (pH 5.7), 2% sucrose, 40 mg/l adenine.SO4, 0.5 g/l PVP, 0.5% agarose, 0.0025 mg/l BAP, 250 mg/l triacillin. • healthy shoots were transferred to 1 liter vessels containing rooting medium which was either A8 or A9; A8 consists of 100-130 ml half concentrated MS, 1% sucrose (pH 5.0), 1 mg/l isobutyric acid (IBA), 100 mg/l triacillin added to 300 ml perlite (final pH 6.2); A9 consists of half concentrated MS, 1.5% sucrose (pH 5.8) solidified with agar (0.6%)"}, "[3]": {"conditions": "Plasmid pTS172, Before 250, 125 bombarded calli"}, "[4]": {"conditions": "Plasmid pTS772, Before 250, 210 bombarded calli"}, "[5]": {"conditions": "Plasmid pTS772, Before/After, 210 bombarded calli"}, "[6]": {"conditions": "after 4-5 days of incubation with niacinamide"}}, "note": "Marks after values point to notes of the source that are not given here.", "data": [{"smiles": "NC(=O)c1cccnc1", "note": "[niacinamide]", "values": [{"measurement": "Nr of PPT-resistant calli recovered", "setting": "[1]; Plasmid pTS172, Before 250 (250 mg/l niacinamide for four days prior to bombardment), 125 bombarded calli", "result": 30}, {"measurement": "Nr of MS plants recovered", "setting": "[1]; [3]", "result": "3^b)"}, {"measurement": "Nr of PPT resistant plants recovered", "setting": "[1]; [3]", "result": 3}, {"measurement": "appearance of the obtained plants", "setting": "[1]; Plasmid pTS172, Before 250, MS plants", "result": "^b)The obtained plants looked healthy and tillered vigorously"}, {"measurement": "Nr of PPT resistant plants recovered", "setting": "[1]; [4]", "result": 7}, {"measurement": "Nr of PPT-resistant calli recovered", "setting": "[1]; [4]", "result": 75}, {"measurement": "Nr of MS plants recovered", "setting": "[1]; Plasmid pTS772, Before 250, 210 bombarded calli, only six plants could be analyzed for MS phenotype", "result": "3^a)b)"}, {"measurement": "appearance of the obtained plants", "setting": "[1]; Plasmid pTS772, Before 250 and Before/After, MS plants", "result": "^a)The obtained plants looked healthy and tillered vigorously"}, {"measurement": "Nr of PPT-resistant calli recovered", "setting": "[1]; Plasmid pTS772, Before/After (250 mg/l four days prior plus 100 mg/l four days after bombardment), 210 bombarded calli", "result": 45}, {"measurement": "Nr of MS plants recovered", "setting": "[1]; [5]", "result": "3^a"}, {"measurement": "Nr of PPT resistant plants recovered", "setting": "[1]; [5]", "result": 6}, {"measurement": "Nr of PPT resistant plants recovered", "setting": "[1]; Plasmid pVE136, Before 100 (100 mg/l niacinamide for four days prior to bombardment), 800 bombarded calli", "result": "8^a)"}, {"measurement": "Nr of MS plants recovered", "setting": "[1]; Plasmid pVE136, Before 100, 800 bombarded calli", "result": 8}, {"measurement": "appearance of the obtained plants", "setting": "[1]; Plasmid pVE136, Before 100, PPT resistant plants", "result": "^a)The obtained plants looked healthy and tillered vigorously"}, {"measurement": "recovery of plants from bombarded calli", "setting": "[1]; Tables 1, 2 and 3, treated versus untreated calli", "result": "obtained only from bombarded calli that were treated with niacinamide"}, {"measurement": "anthocyanin production in tissue culture", "setting": "[2]; A5 medium containing 250 mg/l niacinamide", "result": "no anthocyanin was produced"}, {"measurement": "concentration of dehydroascorbate in the explants", "setting": "[2]; [6]", "result": "drastically decreased"}, {"measurement": "concentration of hydroxyl free radical in the explants", "setting": "[2]; [6]", "result": "drastically decreased"}, {"measurement": "percentage of cultured cells in G2 phase of the cell cycle", "setting": "[2]; after a 4 day incubation in niacinamide containing medium, considerably increased", "result": "up to 45 % of all cells in the culture"}]}]}
